Experimental data taken from PMC11456916, “A screen for cell envelope stress uncovers an inhibitor of prolipoprotein diacylglyceryl transferase, Lgt, in Escherichiacoli” (iScience, 2024).
Like-named read-outs stand apart in the source and are kept apart here.

Experiments:
[1] = tested on: E. coli and the Gram-positive organisms Staphylococcus aureus and Bacillus subtilis; assay: Growth inhibition in dose of E. coli and Gram-positive organisms; type: cell-based; settings: tested in dose against E. coli, S. aureus and B. subtilis
Method: Of these 24 compounds, six were prioritized for further follow-up based on structural novelty relative to known antibacterial scaffolds and were tested in dose for growth inhibition of E. coli and the Gram-positive organisms Staphylococcus aureus and Bacillus subtilis (Figure S5). We hypothesized that compounds active against E. coli, but not the Gram-positive organisms, might target processes involved in the Gram-negative outer-membrane synthesis, many of which were identified as possible targets in our genetic screen. Importantly, these processes are either absent or not essential for growth in Gram-positive organisms, offering promise for narrow-spectrum applications.
(§1) For MIC assays, cultures of bacteria were grown in LB broth. Overnight cultures were diluted (1:100) into fresh LB media and grown to the mid-log phase of growth (OD600 ∼0.5). Subcultures were then normalized to an OD600 of 0.1, and diluted (1:5000) into assay media. Assay plates were then incubated for 18 h at 37°C, then OD600 was measured using a Biotek Neo plate reader.

K. aerogenes CO045 = assay: MIC assay with or without SPR741, K. aerogenes; type: cell-based, Klebsiella aerogenes; settings: for MIC: Klebsiella aerogenes
Method: (§2) We next sought to determine whether we could achieve growth inhibition of wild-type E. coli using MAC-0452936 and an antibiotic adjuvant. […] To that end, we determined the MIC of MAC-0452936 against wild-type E. coli in the presence and absence of a sub-MIC concentration of SPR741 (Figure S8B). […] We leveraged this combination to characterize the spectrum of activity of MAC-0452936 against a panel of Gram-negative pathogens (Table 2). In the presence of 8 μg/mL SPR741, we observed MAC-0452936 activity against the clinical E. coli isolates C0244 and CFT073 at 2 μg/mL as well as against Salmonella Typhimurium SL1344 at 4 μg/mL.
as §1

S. aureus MRSA JE2 = assay: MIC assay with or without SPR741, S. aureus; type: cell-based, Staphylococcus aureus; settings: for MIC: Staphylococcus aureus, MRSA
Method: as §2, §1

E. coli ΔtolC-pore = assay: Live cell fluorescence microscopy, cell width; type: cell-based; settings: increasing concentrations, 1 h, DAPI and FM4-64 stain
Method: Figure 4 MAC-0452936 inhibited prolipoprotein diacylglyceryl transferase, Lgt (A) Growth inhibition of E. coli ΔtolC-pore, three independent MAC-0452936 resistance mutants with a V109A substitution in Lgt (2,959,071A→G), a mutant with an A37T substitution (2,959,288C→T), and a mutant with a G138A substitution (2,958,984C→G). The experiment was conducted in biological triplicate. Data are represented as mean ± SEM. (B) Structure of Lgt from E. coli with two phosphatidyl-glycerol (PG) moieties bound (PDB: 5AZB).[49] Mutated residues from spontaneous resistance mutants are highlighted in blue on proximal α-helices, with the blue sphere highlighting the space in between the mutated residues where both PG moieties reside. […] The width of at least 240 cells was measured at each MAC-0452936 concentration, with specific n values for each concentration of MAC-0452936 listed in the figure. […]
An overnight culture of E. coli ΔtolC-pore was prepared, then diluted (1:100) into fresh LB media and grown to the mid-exponential phase of growth (OD600 ∼0.5). […] Samples were imaged using a Nikon Eclipse Ti inverted microscope at 100× magnification, with a minimum of 200 cells counted per image. Images were quantified with ImageJ, using the following macro. […]

**Q.** What does the source list for COc1ccc(C(=O)O/N=C(\c2cccs2)C(C)(C)C)cc1 [MAC-0452936, (Z)-2-Pivaloylthiophene O-(4-methoxybenzoyl) oxime]?
**A.** spectrum of growth inhibition, E. coli versus Gram-positive organisms [1]: specifically inhibit E. coli; MIC, K. aerogenes CO045 + 8 μg/mL SPR741 (K. aerogenes CO045; 8 μg/mL SPR741): did not observe MAC-0452936 activity; MIC (K. aerogenes CO045; CO045, read-out: MIC, K. aerogenes CO045 + 8 μg/mL SPR741): > 64 µg/mL; MIC (K. aerogenes CO045; CO045, read-out: MIC, K. aerogenes CO045 + 0 μg/mL SPR741): > 64 µg/mL; MIC, S. aureus MRSA JE2 + 8 μg/mL SPR741 (S. aureus MRSA JE2; 8 μg/mL SPR741): did not observe MAC-0452936 activity; MIC (S. aureus MRSA JE2; read-out: MIC, S. aureus MRSA JE2 + 0 μg/mL SPR741): > 64 µg/mL; MIC (S. aureus MRSA JE2; read-out: MIC, S. aureus MRSA JE2 + 8 μg/mL SPR741): > 64 µg/mL; effect on cell width and morphology (E. coli ΔtolC-pore): dose-dependent increase in cell width
